The values that follow come from patent publication US20140206748A1, “COMPOSITIONS AND METHODS RELATED TO PROSTATE CANCER” (Regents of the University of Minnesota, priority 2013, published 2014).

The subject of one assay is androgen receptor (AR). Nature of the assay: MMTV-Luc reporter assay in CWR-R1 early and CWR-R1 late cells. It is filed as cell-based, human. The following applies: 1 nM mibolerone, 24 hours; CWR-R1 early vs CWR-R1 late cells.
A further assay deals with 22Rv1 cells. Briefly: Growth of 22Rv1 cells under castrate conditions (crystal violet staining). It is filed as cell-based, human. The following applies: CSS; 10 μM bicalutamide or 1 μM enzalutamide.
The test system of a further assay is CWR-R1 cells. The following applies: castrate conditions; 10 μM bicalutamide or 1 μM enzalutamide.
In assay [1] the test system is castration-resistant prostate cancer patients. The following applies: Phase III trials; cited from earlier work.
Assay [2] relates to LNCaP cells.
Experimental: Normalized gene expression data was ranked using the Signal2Noise metric and GSEA was performed against 1000 random gene set permutations.
The test system of assay [3] is LNCaP cells. The following applies: 0.1 nM DHT to 100 nM DHT.

Like-named read-outs stand apart in the source and are kept apart here.

For `C[C@@H]1CC2=CC(=O)CC[C@@H]2[C@H]2CC[C@@]3(C)[C@@H](CC[C@]3(C)O)[C@@H]21` [mibolerone], in the assay on androgen receptor (AR), the “AR transactivation (MMTV-Luc) in response to androgen” value is “higher in CWR-R1 early cells than CWR-R1 late cells”.
Take `CNC(=O)c1ccc(N2C(=S)N(c3ccc(C#N)c(C(F)(F)F)c3)C(=O)C2(C)C)cc1F` [enzalutamide]: the “growth of 22Rv1 cells under castrate conditions” value in the assay with 22Rv1 cells is “unaffected”. For the same compound, the “androgen-independent growth of deletion-enriched CWR-R1 cells” value in the assay with CWR-R1 cells was “insensitive”. The “increase of overall survival” value in assay [1] is given as 4.8 months.
Turning to `C[C@]12CCC(=O)C[C@@H]1CC[C@@H]1[C@@H]2CC[C@]2(C)[C@@H](O)CC[C@@H]12` [DHT, dihydrotestosterone], the “enrichment of the "full-length AR" signature (GSEA)” value in the assay with LNCaP cells [2] (1 nM DHT and 100 nM DHT datasets) is on record as “positive enrichment”. The “enrichment of the "AR-V-specific" signature (GSEA)” value in the assay on LNCaP cells [2] (1 nM DHT dataset (GSE26483)) is listed as “positive enrichment”. For the same compound, the “enrichment of the "AR-V-specific" signature (GSEA)” value with LNCaP cells [2] (100 nM DHT dataset (GSE7868)) is “strong negative enrichment”. In the assay with LNCaP cells [3], the PSA expression entry was “increased concomitant with increasing androgen concentration”; the “expression of M-phase genes UBE2C, CDCA5, ZWINT, and CCNA2” value is recorded as “biphasic response”.
